Measured values from ChEMBL document CHEMBL1201862, “PubChem BioAssay data set” (2004).
Each block holds one compound with its values, some of them ahead of it. Activity calls are given as the source filed them.

Experiments:
[1] = biological target: T1, Neuropeptide Y receptor type 2 (Homo sapiens, UniProt P49146); assay: Fluorescence-based counterscreen for agonists of NPY-Y1: cell-based high-throughput dose response assay for agonists of NPY-Y2.; format: functional
T1 sequence (P49146 whole entry): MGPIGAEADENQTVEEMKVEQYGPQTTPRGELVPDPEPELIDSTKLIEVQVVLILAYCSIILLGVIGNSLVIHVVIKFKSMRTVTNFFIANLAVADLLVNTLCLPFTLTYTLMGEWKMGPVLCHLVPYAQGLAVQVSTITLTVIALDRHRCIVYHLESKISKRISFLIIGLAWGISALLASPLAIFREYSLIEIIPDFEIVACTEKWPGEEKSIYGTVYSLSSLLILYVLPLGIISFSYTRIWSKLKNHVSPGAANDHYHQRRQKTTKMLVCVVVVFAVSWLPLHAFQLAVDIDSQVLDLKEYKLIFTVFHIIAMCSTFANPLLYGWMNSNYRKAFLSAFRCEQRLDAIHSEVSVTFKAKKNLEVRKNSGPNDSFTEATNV

HEK293 = assay: Fluorescence-based counterscreen for potentiators or agonists of NPY-Y1: cell-based high-throughput dose response assay for inhibitors of cyclic nucleotide gated ion channel (CNGC) activity. In this assay, the parental HEK293 cell line transfected with a cyclic-nucleotide gated ion channel (CNGC)-based cAMP sensor is used to measure inhibition of isoproterenol-induced CNGC …; format: functional; conditions: Homo sapiens
[2] = biological target: T2, Neuropeptide Y receptor type 1 (Homo sapiens, UniProt P25929); assay: Fluorescence-based dose response cell-based high-throughput screening assay for agonists of NPY-Y1. [Related pubchem assays: 1697 (Screening assay (NPY-Y1 agonists).), 1359 (Screening assay (NPY-Y2 potentiators or agonists).), 1304 (Screening assay (NPY-Y1 potentiators or agonists).), 1704 (Screening assay (CNGC inhibitors).), 1791 (Summary AID.)]; format: functional
T2 sequence (P25929 whole entry): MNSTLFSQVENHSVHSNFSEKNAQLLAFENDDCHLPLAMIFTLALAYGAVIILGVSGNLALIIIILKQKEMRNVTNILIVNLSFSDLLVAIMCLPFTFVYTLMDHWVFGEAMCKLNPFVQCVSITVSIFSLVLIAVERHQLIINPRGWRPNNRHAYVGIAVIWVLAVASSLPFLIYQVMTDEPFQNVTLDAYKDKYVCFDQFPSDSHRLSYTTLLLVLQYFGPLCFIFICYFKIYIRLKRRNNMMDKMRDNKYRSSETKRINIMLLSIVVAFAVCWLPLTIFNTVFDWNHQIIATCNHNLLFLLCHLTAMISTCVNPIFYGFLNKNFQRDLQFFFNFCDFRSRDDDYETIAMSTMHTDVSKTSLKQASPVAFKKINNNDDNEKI

[3] = biological target: T3, Eukaryotic translation initiation factor 2-alpha kinase 3 (Homo sapiens, UniProt Q9NZJ5); assay: Counterscreen assay for PERK inhibitors: Dose response cell-based high throughput screening assay to measure inhibition of PERK at 6 hours. [Related pubchem assays: 1522, 1416 ]; format: functional
[4] = biological target: T3, Eukaryotic translation initiation factor 2-alpha kinase 3; assay: Dose response cell-based high-throughput screening assay to measure PERK inhibition. [Related pubchem assays: 1416 ]; format: functional
Chaperone protein dnaK = Chaperone protein dnaK (Escherichia coli, UniProt C3TRK2); assay: DnaK beta-domain binding affinity, SAR follow-up, orthogonal assay for DnaK modulator project, biophysical, isothermal titration calorimetry, full-length DnaK (AID 1495)
Sequence of Chaperone protein dnaK (C3TRK2 whole entry): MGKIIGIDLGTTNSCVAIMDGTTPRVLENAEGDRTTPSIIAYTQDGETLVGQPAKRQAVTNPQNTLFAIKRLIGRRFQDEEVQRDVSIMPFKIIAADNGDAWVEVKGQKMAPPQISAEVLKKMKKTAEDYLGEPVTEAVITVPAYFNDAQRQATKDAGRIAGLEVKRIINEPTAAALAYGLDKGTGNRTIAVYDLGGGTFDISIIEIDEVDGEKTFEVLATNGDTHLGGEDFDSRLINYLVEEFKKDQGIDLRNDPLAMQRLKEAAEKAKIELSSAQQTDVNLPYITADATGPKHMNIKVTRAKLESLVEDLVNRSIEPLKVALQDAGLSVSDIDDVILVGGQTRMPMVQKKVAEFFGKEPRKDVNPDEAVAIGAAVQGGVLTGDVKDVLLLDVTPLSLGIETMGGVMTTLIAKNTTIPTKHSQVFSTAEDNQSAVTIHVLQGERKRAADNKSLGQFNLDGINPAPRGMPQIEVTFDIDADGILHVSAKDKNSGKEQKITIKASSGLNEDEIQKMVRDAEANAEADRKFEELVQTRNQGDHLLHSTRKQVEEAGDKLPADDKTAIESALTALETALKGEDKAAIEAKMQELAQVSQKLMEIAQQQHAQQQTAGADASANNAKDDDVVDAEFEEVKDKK

T3 sequence (Q9NZJ5 whole entry): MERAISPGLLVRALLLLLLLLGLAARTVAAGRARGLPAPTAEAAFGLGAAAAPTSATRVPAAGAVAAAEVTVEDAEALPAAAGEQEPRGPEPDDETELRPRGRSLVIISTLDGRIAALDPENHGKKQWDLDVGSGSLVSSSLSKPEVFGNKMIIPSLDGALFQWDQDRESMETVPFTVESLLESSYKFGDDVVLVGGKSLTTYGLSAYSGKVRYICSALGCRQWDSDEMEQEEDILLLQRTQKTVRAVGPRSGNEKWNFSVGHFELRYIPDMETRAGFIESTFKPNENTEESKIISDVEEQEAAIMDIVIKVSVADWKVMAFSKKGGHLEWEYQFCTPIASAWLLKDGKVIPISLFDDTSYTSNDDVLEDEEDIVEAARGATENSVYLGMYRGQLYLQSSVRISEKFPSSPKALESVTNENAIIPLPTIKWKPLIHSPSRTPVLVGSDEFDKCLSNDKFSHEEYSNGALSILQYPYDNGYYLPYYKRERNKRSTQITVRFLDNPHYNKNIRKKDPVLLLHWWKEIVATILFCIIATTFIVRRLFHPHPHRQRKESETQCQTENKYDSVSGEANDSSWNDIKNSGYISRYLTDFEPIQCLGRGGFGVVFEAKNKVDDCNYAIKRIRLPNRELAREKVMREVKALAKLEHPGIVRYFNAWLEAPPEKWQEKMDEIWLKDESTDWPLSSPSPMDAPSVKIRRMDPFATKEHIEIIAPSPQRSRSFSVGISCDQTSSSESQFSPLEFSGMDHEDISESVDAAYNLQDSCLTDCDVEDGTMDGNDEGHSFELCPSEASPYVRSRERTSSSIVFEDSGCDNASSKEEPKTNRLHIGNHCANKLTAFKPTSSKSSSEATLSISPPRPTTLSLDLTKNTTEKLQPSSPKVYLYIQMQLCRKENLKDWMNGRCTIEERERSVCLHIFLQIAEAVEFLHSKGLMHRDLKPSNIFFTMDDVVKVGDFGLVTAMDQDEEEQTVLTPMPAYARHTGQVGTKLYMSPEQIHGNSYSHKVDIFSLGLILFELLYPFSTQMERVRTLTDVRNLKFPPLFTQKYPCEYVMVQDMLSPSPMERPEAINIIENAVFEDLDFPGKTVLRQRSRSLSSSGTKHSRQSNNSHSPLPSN

SMILES: O=C(Nc1ccncc1)c1ccc2c(c1)C(=O)N(C1CCCCC1)C2=O
EC50 [1]: > 35.4 µM (not active)
IC50 (HEK293): > 35.4 µM (not active)
EC50 [2]: > 35.4 µM (not active)

EC50 [3]: > 55.7 µM (not active)
EC50 [4]: > 55.7 µM (not active)
SMILES: Cc1c(O)n2c(nc1=O)sc1ccccc12

SMILES: O=C(NCc1cccc2ccsc12)c1cccs1
Kd (Chaperone protein dnaK): 0.2 µM (active)
